Source: BindingDB's records for doi:10.7270/Q25H7DV5 (Burnham Center For Chemical Genomics, 2011)

Biological target: DNA dC->dU-editing enzyme APOBEC-3G (Homo sapiens, UniProt Q9HC16)
Test: inhibition of APOBEC3G ssDNA deamination – biochemical, fluorescence, single-stranded DNA substrate, SAR follow-up (AID 602136)
Conditions: 25 °C

Sequence of DNA dC->dU-editing enzyme APOBEC-3G (Q9HC16 whole entry): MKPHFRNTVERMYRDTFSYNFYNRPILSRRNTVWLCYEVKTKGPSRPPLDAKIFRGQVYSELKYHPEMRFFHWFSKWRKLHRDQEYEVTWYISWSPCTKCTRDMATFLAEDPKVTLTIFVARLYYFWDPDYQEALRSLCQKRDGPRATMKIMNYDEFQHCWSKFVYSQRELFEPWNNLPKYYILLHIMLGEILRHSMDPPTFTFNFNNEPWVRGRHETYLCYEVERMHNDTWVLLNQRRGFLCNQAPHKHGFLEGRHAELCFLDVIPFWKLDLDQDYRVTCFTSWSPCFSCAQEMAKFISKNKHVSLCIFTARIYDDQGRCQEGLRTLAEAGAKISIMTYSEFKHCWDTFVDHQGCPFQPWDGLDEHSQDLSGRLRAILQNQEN

SMILES	IC50 [µM]
CC1(C)Oc2ccc3ccc(=O)oc3c2C(CN=O)=C1Cl [9-chloro-2-keto-8,8-dimethyl-pyrano[2,3-f]chromene-10-carbaldehyde oxime]	> 99
CCN1C(SCC(=O)NCc2ccco2)=NNC1=C1C=CC=CC1=O	> 99
